The target in series [1] is T1, Indoleamine 2,3-dioxygenase 1 (Homo sapiens, UniProt P14902). The series can be described thus: Inhibition of human recombinant IDO1 measured after 60 mins by fluorescence based analysis.
Target sequence in this assay (P14902 whole entry): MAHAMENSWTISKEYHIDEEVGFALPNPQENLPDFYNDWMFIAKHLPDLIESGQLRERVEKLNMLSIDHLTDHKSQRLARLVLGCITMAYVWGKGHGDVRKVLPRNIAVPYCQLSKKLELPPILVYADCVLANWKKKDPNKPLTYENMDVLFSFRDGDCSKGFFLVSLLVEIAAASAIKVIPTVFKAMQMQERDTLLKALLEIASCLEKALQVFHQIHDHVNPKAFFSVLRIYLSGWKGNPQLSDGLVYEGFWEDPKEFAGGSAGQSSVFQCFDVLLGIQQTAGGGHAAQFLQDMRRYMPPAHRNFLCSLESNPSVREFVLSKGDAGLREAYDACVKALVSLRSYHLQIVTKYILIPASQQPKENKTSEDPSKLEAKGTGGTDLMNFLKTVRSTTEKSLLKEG
The target of series [2] is T1, Indoleamine 2,3-dioxygenase 1. The series can be described thus: Inhibition of IDO1 in IFN-gamma treated human HeLa cells incubated for 48 hrs by absorbance based analysis. The format is cell-based.
Target sequence in this assay (P14902 whole entry): as above
Series [3] has the same target. Description: Binding affinity to human recombinant IDO1 assessed as dissociation constant measured for 60 sec by SPR assay. The following applies: dose 0.78-25 µM. In general terms: SPR reads the build-up and loss of mass on a sensor chip optically.
Target sequence in this assay (P14902 whole entry, looked up): as the sequence (P14902 whole entry) above
Series [4] deals with CT26. The series can be described thus: Antitumor activity against mouse CT26 cells xenografted in BALB/c mouse model assessed as relative tumor volume growth at 50 mg/kg measured every 3 days for 21 days by caliper method relative to control. It is filed as functional. The following applies: time 21 day.
Series [5] relates to CT26. The series can be described thus: Antitumor activity against mouse CT26 cells xenografted in BALB/c mouse model assessed as relative tumor volume growth at 100 mg/kg measured every 3 days for 21 days by caliper method relative to control. It is filed as functional. Particulars: time 21 day.
The subject of series [6] is CT26. Description: Antitumor activity against mouse CT26 cells xenografted in BALB/c mouse model assessed as reduction in tumor weight at 50 mg/kg measured every 3 days for 21 days by caliper method relative to control. It is filed as functional. Details: scale not given: the % may be the effect or the level left. Particulars: time 21 day.
For series [7], the system named is CT26. The series can be described thus: Antitumor activity against mouse CT26 cells xenografted in BALB/c mouse model assessed as reduction in tumor weight at 100 mg/kg measured every 3 days for 21 days by caliper method relative to control. The format is functional. More on the design: scale not given: the % may be the effect or the level left. The following applies: time 21 day.

A short description of series [8]: Toxicity in BALB/c mouse assessed as change in body weight at 50 to 100 mg/kg measured upto 22 days. The following applies: in vivo, 528 h, dose 50-100 mg/kg, time < 22 day. The format is organism-based.
Series [9] in a line: Toxicity in BALB/c mouse assessed as pathological changes in heart at 50 to 100 mg/kg. It is filed as organism-based. The following applies: in vivo, dose 50-100 mg/kg.
Series [10] can be described thus: Toxicity in BALB/c mouse assessed as pathological changes in liver at 50 to 100 mg/kg. It is filed as organism-based. The following applies: in vivo, dose 50-100 mg/kg.
Series [11] in a line: Toxicity in BALB/c mouse assessed as pathological changes in spleen at 50 to 100 mg/kg. It is filed as organism-based. The following applies: in vivo, dose 50-100 mg/kg.
Series [12] is described as follows: Toxicity in BALB/c mouse assessed as pathological changes in lungs at 50 to 100 mg/kg. The format is organism-based. Particulars: in vivo, dose 50-100 mg/kg.
The nature of series [13]: Toxicity in BALB/c mouse assessed as pathological changes in kidney at 50 to 100 mg/kg. The format is organism-based. The following applies: in vivo, dose 50-100 mg/kg.
Series [14] addresses T1, Indoleamine 2,3-dioxygenase 1. The series can be described thus: Binding affinity to human recombinant IDO1 heme iron assessed as shift in soret peak at 2 mM by UV-visible spectroscopic analysis (reference value: […]).
Target sequence in this assay (P14902 whole entry, looked up): as the sequence (P14902 whole entry) above
For a further series, the system named is HCT-116. Description: cells. Particulars: Homo sapiens, HCT-116, 48 h.
For a further series, the system named is SW480. The series can be described thus: cells. The following applies: Homo sapiens, SW480, 48 h.
A further series deals with A549. Description: cells. The following applies: Homo sapiens, A549, 48 h.
The next series has as its system HeLa. The series can be described thus: cells. The following applies: Homo sapiens, 48 h.
The target of series [15] is T1, Indoleamine 2,3-dioxygenase 1. Description: Binding affinity to human recombinant IDO1 assessed as dissociation rate constant measured for 60 sec by SPR assay.
Target sequence in this assay (P14902 whole entry): as above

What is called IC50 is the concentration needed to halve the response being measured. In general, koff refers to the rate constant with which the complex falls apart.

A value given as a limit tells only on which side of the number the result lay.

As to `COc1ccc2/c(=N/O)cc(C(=O)N3CCN(S(=O)(=O)c4ccc(F)c(F)c4)CC3)oc2c1`, the IC50 in series [1] is 640 nM; in [2], 1040 nM; in the series on HCT-116 it was greater than 50 µM; in the series on SW480, 28.6 µM; in the series with A549 it was greater than 50 µM; in the series with HeLa, greater than 50 µM. The Activity result in series [3] is “Dose-Dependent Effect”; in the series on CT26 [4], 63.52%; in the series with CT26 [5], 38.01%; in the series on CT26 [6], 36.2%; in the series with CT26 [7], 60.4%; in [8] it was “Non-Toxic”. Besides, the Activity result in [9] was “Non-Toxic”; in [10], “Non-Toxic”; in series [11], “Non-Toxic”; in series [12] it was “Non-Toxic”; in series [13], “Non-Toxic”; in [14] it was 421 nm. In addition, the koff in series [15] came out at 0.11 s⁻¹.

These data come from ChEMBL document CHEMBL5325421, “Discovery of novel sulfonamide chromone-oxime derivatives as potent indoleamine 2,3-dioxygenase 1 inhibitors” (Eur J Med Chem, 2023).
